# “Also recorded” adds a separate entry of the source.
# Experiments:
# fibroblasts = assay: BioMAP proliferation readout, fibroblasts; format: cell-based, human; details: 100 μM
# Source text: The X-axis lists the quantitative protein-based biomarker readouts measured in each system. The Y-axis represents a log-transformed ratio of the biomarker readouts for the drug-treated sample (n=1) over vehicle controls (n≥6). The grey region around the Y-axis represents the 95% significance envelope generated from historical vehicle controls. Biomarker activities are annotated when two or more consecutive concentrations change in the same direction relative to vehicle controls, are outside of the significance envelope, and have at least one concentration with an effect size >20% (|log 10 ratio|>0.1). Biomarker key activities are described as modulated if these activities increase in some systems, but decrease in others. […] As summarized in Table 2 below, the compound was active with 35 annotated readouts. […]
# Human primary cells in BioMAP® systems are used at early passage (passage 4 or earlier) to minimize adaptation to cell culture conditions and preserve physiological signaling responses. […] Test agents prepared in either DMSO (small molecules; final concentration ≤0.1%) or PBS (biologics) are added at the indicated concentrations 1-hr before stimulation, and remain in culture for 24-hrs or as otherwise indicated (48-hrs, MyoF system; 72-hrs, BT system (soluble readouts); 168-hrs, BT system (secreted IgG)). […]
# [1] = test system: NCI-H1299 NSCLC cell line; assay: BioMAP Oncology NSCLC panel (StroNSCLC and VascNSCLC systems); format: cell-based, human
# Source text: The BioMAP® oncology system used in this Example is a coculture of primary human immune cells with primary tissue cells in the presence of the NSCL cells. In particular, The BioMAP® Oncology NSCLC panel models the interactions between the immune-stromal (fibroblasts) and immune-vascular (endothelial cells) environments in the context of non-small lung cancer (NCI-H1299 NSCLC cell line). The interactions between tumor cells, stimulated immune cells (peripheral blood mononuclear cells [PBMC]), and the host stromal network (human neonatal dermal fibroblasts [HDFn]) are captured in the StroNSCLC system. In parallel, the VascNSCLC system captures the interactions between tumor cells, activated immune cells and the vascular tissue (human umbilical vein endothelial cells [HUVEC]). The biomarkers selected for the BioMAP® Non-small Cell Lung Cancer (NSCLC) panel inform on activities related to inflammation, immune-function, tissue remodeling and metastasis in the context of a host tumor-microenvironment.
# A signature BioMAP® profile that is reflective of the changes in protein biomarker readouts within an individual system is generated for each test agent. Biomarker readouts selected for therapeutic and biological relevance are predictive for disease outcomes or specific drug effects, and have been validated using agents with known clinical efficacy. Each readout is measured quantitatively by immune-based receptors, cytokines, chemokines, matrix molecules and enzymes. In total, the 42 biomarker readouts in the NSCLC panel capture the biological changes that occur within the physiological context of each particular BioMAP® system.
# The BioMAP® Non-small Cell Lung Cancer (NSCLC) panel allows a focused in vitro evaluation of the impact of an agent in a model system that includes the hierarchical signaling networks that exist between interacting pathways and cells in a disease relevant setting. To represent the changes that are occurring in these complex systems, biomarker readouts with the ability to integrate and distinguish changes in different regulatory networks have been selected.
# Data analysis of the results was performed as described in detail above in Example 3.1. Briefly, biomarker activities are annotated when at least one concentration of the test agent is outside of the significance envelope with an effect size >20% compared to the vehicle control (|log 10 ratio|>0.1) and a p-value <0.01. Cytotoxic conditions are noted when total protein levels decrease by more than 50% (log 10 ratio of SRB <−0.3). Biomarker key activities are described as modulated if these activities increase in some systems, but decrease in others.
# [2] = 7.4 μM, 22 μM, 67 μM, Angiogenesis related activities
# [3] = 7.4 μM, 22 μM, 67 μM, Immune-related activities
# [4] = 7.4 μM, 22 μM, 67 μM, Inflammation related activities
# [5] = 7.4 μM, 22 μM, 67 μM, Matrix remodeling activities
smiles,measurement,setting,value
"C1=NC(c2cncc(C3CCC=N3)c2)CC1 (centres unmarked) [3,5-bis(3,4-dihydro-2H-pyrrol-2-yl)pyridine]",antiproliferative effect on fibroblasts,fibroblasts,antiproliferative
same,Decreased activity: uPA,[1]; [2],decreased and uPA
same,Increased activity: tPA,[1]; [2],increased and tPA
same,Decreased Activity: sIL-6,[1]; [3],decreased
same,Decreased activity: sGranB,[1]; [3],decreased; also recorded: sGranB
same,Decreased activity: sIFNγ,[1]; [3],decreased; also recorded: SIFNG
same,Decreased activity: sIL-2,[1]; [3],decreased
same,Decreased activity: sIL-4,[1]; [3],decreased; also recorded: SIL-4
same,Decreased activity: sIL-10,[1]; [3],decreased
same,Decreased activity: sIL-13,[1]; [3],decreased
same,Decreased activity: sIL-17A,[1]; [3],decreased; also recorded: SIL-17A
same,Decreased Activity: sTNFα,[1]; [4],decreased; also recorded: STNFa
same,Decreased activity: VCAM-1,[1]; [4],decreased; also recorded: VCAM-1
same,Decreased activity: sMDC,[1]; [4],decreased
same,Increased activity: IP-10,[1]; [4],increased; also recorded: IP-10
same,Increased activity: Collagen III,[1]; [5],increased; also recorded: Col-III
same,Increased activity: EGFR,[1]; [5],increased and EGFR
same,Increased activity: HGF,[1]; [5],increased and HGF
same,annotated readouts,[1]; BioMAP Oncology NSCLC Panel,21
same,annotated activities,[1]; StroNSCLC system,16
same,annotated activities,[1]; VascNSCLC system,five
same,cytotoxicity,[1]; at 200 μM,cytotoxic
same,cytotoxicity in the VascNSCLC system,"[1]; at 200 μM, VascNSCLC system",detectable cytotoxicity

# Source: patent US12358892B2, “Metalloenzyme inhibitors for treating cancers, Alzheimer's disease, hemochromatosis, and other disorders” (Miralogx LLC, priority 2020, dated 2025)
